In patent US20120121705A1, “Pharmaceutical Or Cosmetic Or Dietetic Composition Suitable For Promoting A Hair Pigmentation Effect” (priority 2009, published 2012):

System: hair follicle pigmentation unit
Experiment: Hair pigmentation: quantitative Masson-Fontana melanin staining in organ-cultured human scalp skin / hair follicles
Type: cell-based
Conditions: spermidine 3HCl 0.1 μM, given at each medium change (every 48 hours), 6 days organ culture; compared with vehicle; FIG. 1 and FIG. 2
Protocol: The skin of normal human scalp was taken from a person who had undergone a routine face lifting surgery after receiving the informed consent. All the experiments were carried out according to the Helsinki principles, with the ethical committee's approval.
The tissues subject to biopsy with 3-4 mm cylindrical scalpel were cultured at 37° C. for 6 days in Williams E medium (Biochrom, Cambridge, U.K.), integrated with 100 IU ml^−1 penicillin, 10 μg ml^−1 streptomycin (Gibco, Karlsruhe, Germany), 10 μg ml^−1 insulin (Sigma, Taukfirchen, Germany), 10 ng ml^−1 hydrocortisone (Sigma) and 2 mmol L^−1 (L-glutamine (Invitrogen, Paisley, U.K.). […]
The Masson-Fontana staining was carried out for the histochemical display of melanin on frozen sections. Melanin was stained in the form of brown granules and the pigmentation level was determined through the quantitative Masson-Fontana technique (Ito N., Ito T., Kromminga A., Bettermann A., Takigawa M., Kees F., Straub R. H., and Paus R. (2005): Human hair follicles display a functional equivalent of the hypothalamic-pituitary-adrenal axis and synthesize cortisol. FASEB J 19, 1332-4). […]
The staining intensity was analyzed in a defined reference region of the hair follicle pigmentation unit using the ImageJ software (National Institute of Health). […]

## NCCCCNCCCN [spermidine, N-(3-aminopropyl)butan-1,4-diamine]
  pigmentation intensity in hair follicles (melanin, Masson-Fontana staining): increase of melanin
